Source: ChEMBL document CHEMBL3885861, “Open TG-GATES”

Species: Rattus norvegicus
Assay: Open TG-GATES - Regimen: Daily Repeat
Format: toxicity, organism-based, Sprague-Dawley
Set-up: regimen Daily Repeat, gender Male, age 6 weeks
Conditions: in vivo, po, route gavage; for APTT / Bas / Eos / Fbg / Hb / Ht / Lym / MCH / MCHC / MCV / Mono / Neu / PT / Plat / RBC / Ret / WBC: tissue Blood; for KIDNEY_L / KIDNEY_R / KIDNEY_TOTAL: tissue Kidney; for LIVER: tissue Liver; for A/G / ALP / ALT / AST / BUN / CRE / Ca / Cl / DBIL / GLC / IP / K / LDH / Na / PL / RALB / TBIL / TC / TG / TP / gamma-GTP: tissue Plasma
[1] = 0 mg/kg, 72 h, dose level Control, time 3 day
[2] = 0 mg/kg, […], dose level Control, time 7 day
[3] = 0 mg/kg, […], dose level Control, time 14 day
[4] = 0 mg/kg, […], dose level Control, time 28 day
[5] = 30 mg/kg, 72 h, dose level Low, time 3 day
[6] = 30 mg/kg, […], dose level Low, time 7 day
[7] = 30 mg/kg, […], dose level Low, time 14 day
[8] = 30 mg/kg, […], dose level Low, time 28 day

CCc1oc2ccccc2c1C(=O)c1cc(I)c(O)c(I)c1 [BENZIODARONE]
TERMINAL_BW [1]: 239.1 g
APTT [1]: 17.3 s
Bas [1]: 0%
Eos [1]: 0.8%
Fbg [1]: 216.8 mg/dL
Hb [1]: 14.1 g/dL
Ht [1]: 41.9%
Lym [1]: 76.2%
MCH [1]: 21.4 pg
MCHC [1]: 33.7%
MCV [1]: 63.6 fL
Mono [1]: 7%
Neu [1]: 15.6%
PT [1]: 11.7 s
Plat [1]: 125.7 x10_4/uL
RBC [1]: 658.4 x10_4/ul
Ret [1]: 6.2%
WBC [1]: 99.6 x10_2/uL
KIDNEY_L [1]: 1.1 g
KIDNEY_R [1]: 1.1 g
KIDNEY_TOTAL [1]: 2.2 g
LIVER [1]: 11.6 g
A/G [1]: 1.8
ALP [1]: 882.4 IU/L
ALT [1]: 39 IU/L
AST [1]: 62.6 IU/L
BUN [1]: 17.4 mg/dL
CRE [1]: 0.5 mg/dL
Ca [1]: 10.7 mg/dL
Cl [1]: 104.6 meq/L
DBIL [1]: 0.014 mg/dL
GLC [1]: 203.2 mg/dL
IP [1]: 7.2 mg/dL
K [1]: 4.7 meq/L
LDH [1]: 79.6 IU/L
Na [1]: 141 meq/L
PL [1]: 147.4 mg/dL
RALB [1]: 3.7 g/dL
TBIL [1]: 0.3 mg/dL
TC [1]: 75.4 mg/dL
TG [1]: 103.6 mg/dL
TP [1]: 5.7 g/dL
gamma-GTP [1]: 1.2 IU/L
TERMINAL_BW [2]: 272.7 g
TERMINAL_BW [3]: 335.3 g
TERMINAL_BW [4]: 397 g
APTT [2]: 16.8 s
Bas [2]: 0%
Eos [2]: 1%
Fbg [2]: 220 mg/dL
Hb [2]: 14.2 g/dL
Ht [2]: 41.6%
Lym [2]: 77.8%
MCH [2]: 21.4 pg
MCHC [2]: 34.1%
MCV [2]: 62.8 fL
Mono [2]: 7.2%
Neu [2]: 14.2%
PT [2]: 11.5 s
Plat [2]: 125.2 x10_4/uL
RBC [2]: 662.2 x10_4/ul
Ret [2]: 4.5%
WBC [2]: 108.6 x10_2/uL
APTT [3]: 17.1 s
Bas [3]: 0%
Eos [3]: 1%
Fbg [3]: 220.6 mg/dL
Hb [3]: 14.2 g/dL
Ht [3]: 41.9%
Lym [3]: 80.8%
MCH [3]: 20.9 pg
MCHC [3]: 34%
MCV [3]: 61.5 fL
Mono [3]: 6%
Neu [3]: 12.6%
PT [3]: 11.5 s
Plat [3]: 115.3 x10_4/uL
RBC [3]: 683.2 x10_4/ul
Ret [3]: 3.1%
WBC [3]: 110 x10_2/uL
APTT [4]: 17.9 s
Bas [4]: 0%
Eos [4]: 1.6%
Fbg [4]: 215.8 mg/dL
Hb [4]: 15.8 g/dL
Ht [4]: 46.8%
Lym [4]: 80%
MCH [4]: 19.5 pg
MCHC [4]: 33.7%
MCV [4]: 57.7 fL
Mono [4]: 5.4%
Neu [4]: 13.4%
PT [4]: 11.9 s
Plat [4]: 117.3 x10_4/uL
RBC [4]: 812.6 x10_4/ul
Ret [4]: 3.1%
WBC [4]: 150.6 x10_2/uL
KIDNEY_L [2]: 1.1 g
KIDNEY_R [2]: 1.2 g
KIDNEY_TOTAL [2]: 2.3 g
KIDNEY_L [3]: 1.3 g
KIDNEY_R [3]: 1.3 g
KIDNEY_TOTAL [3]: 2.6 g
KIDNEY_L [4]: 1.4 g
KIDNEY_R [4]: 1.4 g
KIDNEY_TOTAL [4]: 2.9 g
LIVER [2]: 12.8 g
LIVER [3]: 15.1 g
LIVER [4]: 15.6 g
A/G [2]: 1.7
ALP [2]: 916.8 IU/L
ALT [2]: 36 IU/L
AST [2]: 62.8 IU/L
BUN [2]: 19.2 mg/dL
CRE [2]: 0.5 mg/dL
Ca [2]: 10.6 mg/dL
Cl [2]: 104.6 meq/L
DBIL [2]: 0.048 mg/dL
GLC [2]: 192 mg/dL
IP [2]: 6.9 mg/dL
K [2]: 4.9 meq/L
LDH [2]: 86 IU/L
Na [2]: 139.6 meq/L
PL [2]: 141.8 mg/dL
RALB [2]: 3.6 g/dL
TBIL [2]: 0.3 mg/dL
TC [2]: 65 mg/dL
TG [2]: 114.2 mg/dL
TP [2]: 5.7 g/dL
gamma-GTP [2]: 1.8 IU/L
A/G [3]: 1.6
ALP [3]: 789.8 IU/L
ALT [3]: 32.2 IU/L
AST [3]: 63.2 IU/L
BUN [3]: 19.6 mg/dL
CRE [3]: 0.5 mg/dL
Ca [3]: 10.5 mg/dL
Cl [3]: 104.4 meq/L
DBIL [3]: 0 mg/dL
GLC [3]: 201 mg/dL
IP [3]: 6.7 mg/dL
K [3]: 4.9 meq/L
LDH [3]: 97.2 IU/L
Na [3]: 140.6 meq/L
PL [3]: 149 mg/dL
RALB [3]: 3.7 g/dL
TBIL [3]: 0.3 mg/dL
TC [3]: 72.4 mg/dL
TG [3]: 152 mg/dL
TP [3]: 6 g/dL
gamma-GTP [3]: 2 IU/L
A/G [4]: 1.5
ALP [4]: 606.6 IU/L
ALT [4]: 27 IU/L
AST [4]: 57 IU/L
BUN [4]: 19.8 mg/dL
CRE [4]: 0.6 mg/dL
Ca [4]: 10.6 mg/dL
Cl [4]: 105.6 meq/L
DBIL [4]: 0.04 mg/dL
GLC [4]: 200 mg/dL
IP [4]: 5.7 mg/dL
K [4]: 4.5 meq/L
LDH [4]: 79 IU/L
Na [4]: 140 meq/L
PL [4]: 135 mg/dL
RALB [4]: 3.7 g/dL
TBIL [4]: 0.3 mg/dL
TC [4]: 58 mg/dL
TG [4]: 164.8 mg/dL
TP [4]: 6.2 g/dL
gamma-GTP [4]: 2.2 IU/L
TERMINAL_BW [5]: 242 g
APTT [5]: 17.5 s
Bas [5]: 0%
Eos [5]: 1%
Fbg [5]: 216.8 mg/dL
Hb [5]: 13.8 g/dL
Ht [5]: 40.8%
Lym [5]: 79.4%
MCH [5]: 21.9 pg
MCHC [5]: 33.8%
MCV [5]: 64.7 fL
Mono [5]: 6.4%
Neu [5]: 13.2%
PT [5]: 11.7 s
Plat [5]: 115.3 x10_4/uL
RBC [5]: 629.4 x10_4/ul
Ret [5]: 6.5%
WBC [5]: 104.5 x10_2/uL
KIDNEY_L [5]: 1.1 g
KIDNEY_R [5]: 1.1 g
KIDNEY_TOTAL [5]: 2.2 g
LIVER [5]: 12.7 g
A/G [5]: 1.8
ALP [5]: 1087.2 IU/L
ALT [5]: 42.6 IU/L
AST [5]: 67.4 IU/L
BUN [5]: 16.8 mg/dL
CRE [5]: 0.5 mg/dL
Ca [5]: 10.7 mg/dL
Cl [5]: 104 meq/L
DBIL [5]: 0.016 mg/dL
GLC [5]: 191.2 mg/dL
IP [5]: 7.8 mg/dL
K [5]: 4.5 meq/L
LDH [5]: 103.8 IU/L
Na [5]: 141 meq/L
PL [5]: 155.4 mg/dL
RALB [5]: 3.6 g/dL
TBIL [5]: 0.3 mg/dL
TC [5]: 79.4 mg/dL
TG [5]: 74.4 mg/dL
TP [5]: 5.7 g/dL
gamma-GTP [5]: 1.6 IU/L
TERMINAL_BW [6]: 274.9 g
TERMINAL_BW [7]: 323 g
TERMINAL_BW [8]: 399.3 g
APTT [6]: 17.5 s
Bas [6]: 0%
Eos [6]: 1%
Fbg [6]: 221.6 mg/dL
Hb [6]: 14.2 g/dL
Ht [6]: 41.8%
Lym [6]: 84.6%
MCH [6]: 21.5 pg
MCHC [6]: 34%
MCV [6]: 63.2 fL
Mono [6]: 4.6%
Neu [6]: 10%
PT [6]: 11.9 s
Plat [6]: 117.9 x10_4/uL
RBC [6]: 661.6 x10_4/ul
Ret [6]: 4.7%
WBC [6]: 111.9 x10_2/uL
APTT [7]: 18.1 s
Bas [7]: 0%
Eos [7]: 1%
Fbg [7]: 223.6 mg/dL
Hb [7]: 14.6 g/dL
Ht [7]: 43.4%
Lym [7]: 82.8%
MCH [7]: 20.5 pg
MCHC [7]: 33.6%
MCV [7]: 61.1 fL
Mono [7]: 5.2%
Neu [7]: 11.2%
PT [7]: 11.8 s
Plat [7]: 117.5 x10_4/uL
RBC [7]: 710 x10_4/ul
Ret [7]: 2.5%
WBC [7]: 109.1 x10_2/uL
APTT [8]: 18.9 s
Bas [8]: 0%
Eos [8]: 1.6%
Fbg [8]: 231.2 mg/dL
Hb [8]: 15.2 g/dL
Ht [8]: 45.4%
Lym [8]: 83.2%
MCH [8]: 19 pg
MCHC [8]: 33.6%
MCV [8]: 56.7 fL
Mono [8]: 4.8%
Neu [8]: 11%
PT [8]: 12 s
Plat [8]: 124.3 x10_4/uL
RBC [8]: 799.8 x10_4/ul
Ret [8]: 3%
WBC [8]: 128.8 x10_2/uL
KIDNEY_L [6]: 1.2 g
KIDNEY_R [6]: 1.2 g
KIDNEY_TOTAL [6]: 2.4 g
KIDNEY_L [7]: 1.3 g
KIDNEY_R [7]: 1.3 g
KIDNEY_TOTAL [7]: 2.5 g
KIDNEY_L [8]: 1.4 g
KIDNEY_R [8]: 1.4 g
KIDNEY_TOTAL [8]: 2.9 g
LIVER [6]: 14.7 g
LIVER [7]: 15.7 g
LIVER [8]: 18.7 g
A/G [6]: 1.7
ALP [6]: 918 IU/L
ALT [6]: 32.6 IU/L
AST [6]: 63.4 IU/L
BUN [6]: 18 mg/dL
CRE [6]: 0.6 mg/dL
Ca [6]: 10.8 mg/dL
Cl [6]: 103.4 meq/L
DBIL [6]: 0.018 mg/dL
GLC [6]: 191.8 mg/dL
IP [6]: 7.3 mg/dL
K [6]: 4.6 meq/L
LDH [6]: 101.6 IU/L
Na [6]: 139.6 meq/L
PL [6]: 153.2 mg/dL
RALB [6]: 3.7 g/dL
TBIL [6]: 0.3 mg/dL
TC [6]: 73.6 mg/dL
TG [6]: 110.6 mg/dL
TP [6]: 5.9 g/dL
gamma-GTP [6]: 2 IU/L
A/G [7]: 1.7
ALP [7]: 914 IU/L
ALT [7]: 31.8 IU/L
AST [7]: 63.2 IU/L
BUN [7]: 19.6 mg/dL
CRE [7]: 0.5 mg/dL
Ca [7]: 10.3 mg/dL
Cl [7]: 105.2 meq/L
DBIL [7]: 0.008 mg/dL
GLC [7]: 200.4 mg/dL
IP [7]: 6.7 mg/dL
K [7]: 4.6 meq/L
LDH [7]: 109.6 IU/L
Na [7]: 141.2 meq/L
PL [7]: 152.8 mg/dL
RALB [7]: 3.9 g/dL
TBIL [7]: 0.3 mg/dL
TC [7]: 71.6 mg/dL
TG [7]: 159.4 mg/dL
TP [7]: 6.2 g/dL
gamma-GTP [7]: 1.8 IU/L
A/G [8]: 1.8
ALP [8]: 629.8 IU/L
ALT [8]: 36.4 IU/L
AST [8]: 63.8 IU/L
BUN [8]: 20.2 mg/dL
CRE [8]: 0.7 mg/dL
Ca [8]: 10.9 mg/dL
Cl [8]: 104.2 meq/L
DBIL [8]: 0.01 mg/dL
GLC [8]: 194.4 mg/dL
IP [8]: 6.4 mg/dL
K [8]: 4.4 meq/L
LDH [8]: 121.4 IU/L
Na [8]: 139.6 meq/L
PL [8]: 156.6 mg/dL
RALB [8]: 4 g/dL
TBIL [8]: 0.3 mg/dL
TC [8]: 78.4 mg/dL
TG [8]: 123.8 mg/dL
TP [8]: 6.3 g/dL
gamma-GTP [8]: 1.8 IU/L
